The solubility is the concentration that dissolves in the medium under given conditions.

The values that follow come from patent USRE49742E1, “Drug delivery system for administration of poorly water soluble pharmaceutically active substances” (Vivesto AB, priority 2007, dated 2023).

Data set [1] is described as follows: Solubility of calcium salt in water (concentration in filtered solution, UV method). The class given is physicochemical. The settings on record: concentration in solution filtered through 0.2 μm filter. As for the experimental part:
Aqueous solutions of a sodium salt of the methyl ester of N-all-trans-retinoyl cysteic acid (5 ml, 15 mg/ml) and calcium chloride (3 ml, 30 mg/ml) were mixed in a 10 ml test tube. During the mixing a fine precipitation emerged. The precipitate was separated by centrifugation of the test tube at 3000 rpm for 10 min. The supernatant was removed and the precipitate was shaken with 8 ml of water followed by a new centrifugation. After three additional washing procedures as described above the supernatant was filtered through a 0.2 μm filter in order to remove possible large aggregates of the product. […] The reaction is illustrated by the below general scheme involving chlorides of any polyvalent metal ions, not only calcium ions.

The conditions of data set [2]: cited from earlier work.

In the case of `COC(=O)C(CS(=O)(=O)[O-])NC(=O)/C=C(C)/C=C/C=C(C)/C=C/C1=C(C)CCCC1(C)C.COC(=O)C(CS(=O)(=O)[O-])NC(=O)/C=C(C)/C=C/C=C(C)/C=C/C1=C(C)CCCC1(C)C.[Ca+2]` (stereo not drawn) [calcium salt of the methyl ester of N-all-trans-retinoyl cysteic acid], in data set [1], the solubility came out at 200 µg/mL.

On to `C=CC[C@@H]1/C=C(\C)C[C@H](C)C[C@H](OC)[C@H]2O[C@@](O)(C(=O)C(=O)N3CCCC[C@H]3C(=O)O[C@H](/C(C)=C/[C@@H]3CC[C@@H](O)[C@H](OC)C3)[C@H](C)[C@@H](O)CC1=O)[C@H](C)C[C@@H]2OC` [tacrolimus], for which, in data set [2], the “Bioavailability at oral administration” value was “about 20%”.

For `CO[C@H]1C[C@@H]2CC[C@@H](C)[C@@](O)(O2)C(=O)C(=O)N2CCCC[C@H]2C(=O)O[C@H]([C@H](C)C[C@@H]2CC[C@@H](O)[C@H](OC)C2)CC(=O)[C@H](C)/C=C(\C)[C@@H](O)[C@@H](OC)C(=O)[C@H](C)C[C@H](C)/C=C/C=C/C=C/1C` [sirolimus], the “Bioavailability at oral administration” value in data set [2] was “about 20%”.

Consider `CO[C@H]1C[C@@H]2CC[C@@H](C)[C@@](O)(O2)C(=O)C(=O)N2CCCC[C@H]2C(=O)O[C@H]([C@H](C)C[C@@H]2CC[C@@H](OCCO)[C@H](OC)C2)CC(=O)[C@H](C)/C=C(\C)[C@@H](O)[C@@H](OC)C(=O)[C@H](C)C[C@H](C)/C=C/C=C/C=C/1C` [everolimus], for which the “Bioavailability at oral administration” value in data set [2] is given as “about 20%”.
